The source of these data is patent US4131615A, “Furan derivative for use as pharmaceutical product particularly for the treatment of rheumatic illnesses” (A. Wasserman S.p.A., priority 1977, dated 1978).

Series [1] deals with experimentally induced arthritis (Freund's adjuvant arthritis). Nature of the series: Freund's adjuvant arthritis. It is filed as in vivo. The note with it: 20-40 mg/Kg oral, rat, confirmed by radiologic test.
The nature of series [2]: Acute oral toxicity in mice. On the set-up: species or system male and female Swiss mice. The note with it: in vivo, mouse, 14 days, approximate value. As for the experimental part:
(§1) The product of the EXAMPLE 1, ±αmethyl-4-(furan-2-carbonyl)phenyl acetic acid, was subjected to toxicological and pharmacological tests in rats and mice. The animals used were Sprague Dawley rats and Swiss mice of both sexes, to which the product was administered orally as a 2% suspension in gum arabic parenterally as the sodium salt.
(§2) This has been tested in male and female mice weighing from 18 to 22 g and in female rats weighing from 90 to 120 grams.
(§3) The product was administered to groups of 6 mice and groups of 6 rats, mortality being looked for 14 days after the administration.

The test system of series [3] is Yeast-Induced fever. The series can be described thus: Antipyretic Effect in Yeast-Induced fever. It is filed as in vivo, female Sprague Dawley rats. To be noted: 80 mg/Kg oral, after 60 minutes (peak-effect). The protocol:
as §1
5) Antipyretic Effect in Yeast-Induced fever.
The oral administration of rispectively 80-40-20 mg/Kg of the product to female rats reduces the increase in temperature of the rectum, caused by the injection under the skin of 10 ml/Kg of 15% brewer's yeast in 1% arabic gum, by rispectively 71%-63%-33% after 60 minutes (peak-effect) from the administration.

Series [4] deals with edema induced by Carrageenan. The series can be described thus: Anti-inflammatory activity, Carrageenan-induced edema. It is filed as in vivo, male Sprague Dawley rats. The note with it: 80 mg/Kg oral, 30 minutes before Carrageenan, after 3 hours. The protocol: as §1
An edema was induced in male rats weighing about 120 grams by injection into the aponeurosis under the plantaris of the left foot of 0.1 ml of 1% Carrageenan in saline.
The oral administration of 80-40-20 mg/Kg of product, 30 minutes before the inflammatory agent, reduced after 3 hours the development of the edema by rispectively 53%-47% -23% with respect to that induced in the controls.
A general note: Carrageenan injected into the paw causes an acute inflammation.

Series [5] deals with arterial pressure. The series can be described thus: Action on arterial pressure. It is filed as in vivo. The note with it: endovenous injection, 2.5-12.5-62.5 mg/Kg, rabbit. The source says: 7) Action on arterial pressure.
For series [6], the system named is contortions caused by phenyl-p-benzoquinone. Nature of the series: Analgesic activity, phenyl-p-benzoquinone contortions. The class given is in vivo, female Swiss mice. To be noted: Mus musculus; oral, female mice, contortions by intraperitoneal 0.02% phenyl-p-benzoquinone. As for the experimental part:
as §1
The oral administration of the product to female mice weighing from 18 to 22 grams reduced the number of contortions caused by the intraperitoneal injection of 0.1 ml/10 g of body weight of a 0.02% solution of phenyl-p-benzoquinone.

Series [7] has as its system Nystatin subplantaris edema. The series can be described thus: Curative activity, Nystatin subplantaris edema. The class given is in vivo. The note with it: rat, doses equal to those cited above (80-40-20 mg/Kg). The protocol: as §1
The subject of series [8] is Cotton-Pellet induced granuloma. The series can be described thus: Anti-inflammatory activity on Cotton-Pellet induced granuloma. To be noted: 15 mg/Kg oral daily for 7 days, divided into 4 administrations over 9 hours. It is filed as in vivo, female Sprague Dawley rats. The protocol:
as §1
3) Anti-inflammatory activity on Cotton-Pellet induced granuloma.
The oral administration daily for 7 days of a dose of 15 mg/Kg of the product, divided into 4 administrations taken over a time of 9 hours, reduced the formation of granulomatous tissue formed around Cotton-Pelletsplanted aseptically under the skin of female rats, weighing from 180 to 200 grams, by 17% with respect to controls.

Series [9] is described as follows: Acute oral toxicity in rats. On the set-up: species or system female Sprague Dawley rats. The note with it: in vivo, rat, 14 days, approximate value. As for the experimental part: as §1, §2, §3

`CC(C(=O)O)c1ccc(C(=O)c2ccco2)cc1` (racemic) [Example 1, ±α-methyl-4-(furan-2-carbonyl)-phenylacetic acid]: the “Recovery from experimentally induced arthritis” value in [1] was “Recovery from experimentally induced arthritis in the rat (Freund's adjuvant arthritis) has been obtained”. The 50% lethal dose (LD50) at 336 h was around 1000 mg/kg in [2] and around 980 mg/kg in [9]. Moreover, the “reduction of the increase in temperature of the rectum” value in series [3] came to 71%. In addition, the “reduction of the development of the edema with respect to controls” value in series [4] is on record as 53%. The “variations in the blood pressure” value in [5] is reported as “does not induce significant variations in the blood pressure”. This molecule yielded a median effective dose (ED50) in series [6] of 4.35 mg/kg. For the same molecule, the “regress of the Nystatin subplantaris edema (curative activity)” value in [7] is recorded as “induce in the rat a regress of the Nystatin subplantaris edema”. For the same molecule, in series [8], the “reduction of the formation of granulomatous tissue with respect to controls” value came to 17%.

As a reminder, the LD50 is the dose at which mortality reaches 50%. The ED50 is the dose at which the effect has come halfway, by size or by number of responders.
